pIC50: −log10 of the molar value. ≈ marks a conversion by molar mass, not a printed value.
Legend:
[1] = Inhibition of Mycobacterium tuberculosis H37Rv cytochrome bd oxidase with ATP synthase overexpression inverted membrane vesicles; type: cell membranes, Membrane vesicle
[2] = tested on: Mycobacterium tuberculosis; experiment: Antimycobacterial activity against clinical isolate multi drug resistant Mycobacterium tuberculosis H37Rv assessed as inhibition of bacterial growth; type: functional, organism-based
[3] = tested on: Mycobacterium tuberculosis; experiment: Antimycobacterial activity against Mycobacterium tuberculosis Rv1305 harbouring atpE gene; type: functional

c1ccc(CCNc2ncnc3ccccc23)cc1
pIC50 [1]: 4.57

CC(C)(C)c1ccc(CCNc2ncnc3ccsc23)cc1
pIC50 [2]: 4.72

NC(=O)NC(=O)c1nc(-c2cc3ccccc3o2)c(N)nc1N
MIC [3]: 5 µM (≈ 1.56 µg/mL)

CCc1nc2ccc(Cl)cn2c1C(=O)NCc1ccc(N2CCC(c3ccc(OC(F)(F)F)cc3)CC2)cc1 [TELACEBEC]
MIC [2]: ≤ 1 µM

Reference: ChEMBL document CHEMBL5344478, “Cytochrome bd oxidase: an emerging anti-tubercular drug target” (RSC Med Chem, 2024)
